Data from patent US7858585B2, “Hydrogels and uses thereof” (University of Delaware, priority 2005, dated 2010).
Values belong to the compound of their own block, whether it stands above or below them. Square brackets hold non-standard residues; d marks the D form. Ends that are not written are not given here. Peptide text beside a SMILES is read from it.

Columns and labels:
[1] = Folding (CD) and hydrogelation of sequence variants under folding conditions; assay type: physicochemical; conditions: for conformation by CD under folding conditions: 150 μM, pH 9.0, 125 mM Borate, 10 mM NaCl
Excerpt: In some embodiments of the invention, various functionalities (e.g., cell adhesion epitopes, receptor agonists, receptor antagonists, ligands, small molecules, etc) may be incorporated into the hairpin hydrogel scaffold. One way to accomplish this would be to functionalize one or more amino acid side chains of the peptide. […] In some embodiments, the moieties to be incorporated at a particular side chain may be much larger (e.g. RGD-based motifs) and may contain charged residues. MAX5 (VKVKVKVKV^DPPTKVKEKVKV-NH2) was prepared to investigate the possibility of incorporating a charged residue on the hydrophobic face of MAX1. The sequence contains a glutamic acid residue at position 16 which is negatively charged at basic pH where MAX1 normally folds and assembles. […] However, alterations to the hydrophilic face of MAX1 are well tolerated. Sequences in which one or two lysine residues are replaced with other residues such as cysteine, serine, and glutamic acid are capable of folding and self-assembly into rigid hydrogels (data not shown).
The peptides described above contain identical turn sequences, namely (-V^DPPT-). This sequence has a strong propensity to form a type II′ turn and therefore helps to drive intramolecular folding. Since intramolecular folding must occur prior to self-assembly, alterations to this turn sequence that inhibit turn structure formation can be used to modulate intramolecular folding and self-assembly leading to hydrogelation. MAX9 was prepared to probe the importance of the turn region (VKVKVKVKV^LPPTKVKVKVKV-NH2). MAX9 is identical to MAX1 with the exception that the ^DPro at position ten has been replaced with ^LPro. Unlike the dipeptide ^DPro^LPro contained within MAX1 that favors type II′ turn formation, the ^LPro^LPro motif of MAX9 favors an open conformation. The two strands emanating from an open ^LPro^LPro conformation would be projected in opposite directions. Thus, intramolecular folding resulting in β-hairpin formation would be highly unfavored. […]

[2] = Temperature dependent CD of peptide folding and self-assembly (Tgel), with rheology of thermal reversibility; assay type: physicochemical; conditions: for reversibility of thermally induced hydrogelation: CD 150 μM and rheology 2 wt %, heating/cooling cycles 5-80° C.; for Tgel, temperature at which folding and consequent self-assembly is triggered: 150 μM peptide, 125 mM Borate, 10 mM NaCl, pH 9, CD [θ]218
Excerpt: At low temperature MAX1 is unfolded (and unassembled). At high temperature MAX1 folds into beta-sheet (and consequently self-assembles into a hydrogel). […] The relative hydrophobicity is MAX1>MAX2>MAX3 due to the isostructural but less hydrophobic substitutions of threonine for valine at the underlined positions. The most hydrophobic folds at the lowest temperature while the least hydrophobic folds at the highest temperature. This is a direct manifestations of the molecular parameter manipulations described in FIG. 2. Also shown are the calculated free energy of transfer of each corresponding unfolded peptide having an overall +8 charge state from octanol into water at 25° C. MAX1, the most hydrophobic has the highest free energy of transfer equal to 7.60 kcal/mol. MAX2 has a calculated transfer free energy of 6.88 kcal/mol, while the least hydrophobic MAX3 has the lowest energy of transfer of 6.45 kcal/mol.
This allows the characteristics of the hydrogels of the invention to be varied by adjusting these parameters. […] It is well known that water is better able to solvate hydrophobic groups at low temperatures. This phenomenon has been used to describe the cold denaturation of proteins where some proteins unfold at low temperatures, exposing their hydrophobic interiors to aqueous solvent. A 150 μM aqueous solution of MAX1 unfolds when cooled below room temperature. The CD spectrum at 5° C. is consistent with random coil conformation, FIG. 9A. However, warming the solution to 40° C. results in a spectra consistent with β-sheet structure. […] In fact, previous studies involving the pH induced folding and self-assembly of MAX1 were performed at 20° C. At this temperature, folding and self-assembly are slow enough to be conveniently monitored. At higher temperatures, folding and self-assembly leading to hydrogelation is fast (instantaneous to seconds depending on concentration). If the formation of hydrophobic interactions affects the folding and self-assembly process, then altering the hydrophobic content of MAX1 should affect the temperature at which folding is triggered. […] MAX2 is identical to MAX1 except that one valine residue has been replaced with the isostructural, but less hydrophobic residue, threonine. In MAX3, two valines are replaced with threonine residues. The resulting peptides vary in their hydrophobicity as evident by comparing calculated free energies of transfer from octanol into water, FIG. 9. […] Thus, the formation of hydrophobic contacts influences folding and self-assembly. […] Thus, the characteristics of the hydrogels of the invention can be varied by adjusting the amino acid residues of the peptides used to form the hydrogels to increase or decrease the hydrophobicity of the amino acid residues used.
There are reports of large polymers that are thermally responsive. The present invention provides the first system that employs temperature triggered folding to induce self-assembly. […] Heating the solution to 80° C. results in a spectra consistent with β-sheet structure. […] The temperatures used in both CD and rheology bracket the temperature (Tgel=60° C., FIG. 9) at which folding and consequent self-assembly is triggered. […] For example, free flowing peptide solutions could be prepared at room temperature and administered in vivo where the temperature of the body could induce gelation. Some Poly-N-isopropylacrylamide polymers have been engineered have been engineered to undergo such transitions ultimately affording extracellular-like scaffolds for tissue regeneration. The above studies support the idea that the formation of hydrophobic interactions are important. MAX1-3 all contain valines and threonines at hydrogen bonded positions. At these positions, their side chains prefer to adopt a trans rotamer. […]

[3] = cited from earlier work
[4] = system: fibroblasts (NIH 3T3, mouse); assay: Fibroblast adhesion and proliferation on hydrogel by optical microscopy; assay type: cell-based; conditions: fresh media provided; assay stopped after 1 month
Description: These cells were used as a model system because of their importance in connective tissue development and their easily distinguished morphology when adhered to the hydrogel scaffold. Qualitative studies were performed in which cells were added to either polystyrene control wells or wells containing a uniform slab (3 mm thick) of MAX1-hydrogel. Cell adhesion was qualitatively monitored via direct observation of cell spreading after four hours from the time of initial cell seeding by optical microscopy (a quantitative cell attachment assay is described below, see also Akiyama, S. K. Functional analysis of cell adhesion: Quantitation of cell-matrix attachment, 2002; Vol. 69, pp 281-296). Non-adhered fibroblasts have rounded morphologies and adhered fibroblasts have spread morphologies Proliferation was measured both qualitatively by optical microscopy and quantitatively by a ^3H thymidine-based cell seeding assay as described below. Hydrogels were prepared in 48 well tissue culture plates by either one of the following protocols. Protocol 1: MAX1 was dissolved in water (resulting in an acidic solution, pH˜5) and an equal volume of buffer (pH 9, 250 mM borate, 20 mM NaCl) was added at room temperature to induce folding/self-assembly resulting in a 2 wt % hydrogel. The resulting gel was bathed in DMEM containing 10% calf serum and 10 mg/mL gentamicin. […]

Compound: VKVKVKVK VPPT KVKVKVKV-NH2 (VKVKVKVKVPPTKVKVKVKV-NH2) [MAX9]
conformation by CD under folding conditions [1]: only random coil
hydrogelation ([1]; folding conditions, 2 wt % solutions): failed to undergo hydrogelation

Compound: VKVKVKVK V^DPPT KVKTKVKV-NH2 [MAX2]
reversibility of thermally induced hydrogelation [2]: not reversible
temperature above which peptide folds/self-assembles ([2]; pH 9 (10 mM NaCl)): greater than 45 °C
temperature below which peptide is unfolded ([2]; pH 9 (10 mM NaCl)): below 40 °C

Compound: NC(=O)CN1CCN(CC(N)=O)CCN(CC(N)=O)CCN(CC(N)=O)CC1 [DOTAM]
Kd ([3]; read-out: Kd for calcium): 29 nM

Compound: CC(C)[C@H](N)C(=O)N[C@@H](CCCCN)C(=O)N[C@H](C(=O)N[C@@H](CCCCN)C(=O)N[C@H](C(=O)N[C@@H](CCCCN)C(=O)N[C@H](C(=O)N[C@@H](CCCCN)C(=O)N[C@H](C(=O)N1CCC[C@@H]1C(=O)N1CCC[C@H]1C(=O)N[C@H](C(=O)N[C@@H](CCCCN)C(=O)N[C@H](C(=O)N[C@@H](CCCCN)C(=O)N[C@H](C(=O)N[C@@H](CCCCN)C(=O)N[C@H](C(=O)N[C@@H](CCCCN)C(=O)N[C@H](C(N)=O)C(C)C)C(C)C)C(C)C)C(C)C)[C@@H](C)O)C(C)C)C(C)C)C(C)C)C(C)C [MAX1, VKVKVKVK V^DPPT KVKVKVKV-NH2] (H-VKVKVKVKV[dP]PTKVKVKVKV-NH2)
time cells remain viable on gel [4]: ≥ 1 month

Compound: -DRKADGYIDFEE-
Kd for Ca(II) ([3]; linear peptide, calcium binding loop of Troponin C): low mM

Second part, the compound after the results:

conformation by CD under folding conditions [1]: random coil
Compound: VKVKVKVK V^DPPT KVKEKVKV-NH2 [MAX5]

Tgel, temperature at which folding and consequent self-assembly is triggered [2]: 20 °C
Compound: KVKVKVKV K^DPPS VKVKVKVK-NH2 [MAX4]

Tgel, temperature at which folding and consequent self-assembly is triggered [2]: 60 °C
reversibility of thermally induced hydrogelation [2]: thermally reversible
Compound: VKVKVKTK V^DPPT KVKTKVKV-NH2 [MAX3]
